Earlier results in patent publication US8338346B2, “Perfume compositions comprising functional perfume components” (The Procter & Gamble Company, priority 2008, dated 2012).

Key:
[1] = odor detection threshold; approximate reported values
[2] = approximate reported values; unit inferred

Row | Vapor pressure [2] [mmHg] | Structure (SMILES) | ODT [1] [ppb]
1 | 0.05 | C=CC(C)(O)CCC=C(C)C (centres unmarked) [Linalool, 3-hydroxy-3,7-dimethyl-1,6 octadiene] | 22
2 |  | C=C(C)C1CC=C(C)CC1 [D-Limonene, 1-methyl-4-isopropenyl-1-cyclohexene] | 204
3 | 0.11 | CC(=O)OCCCCCCC(C)C [Iso-Nonyl Acetate, iso-nonyl acetate] | 12
